Experimental data taken from PubChem BioAssay AID624404 (Broad Institute, 2012).
Records with an inconclusive call do not appear.

system: D54 LucT luciferase reporter counterscreen, luminescence, 24 h; experiment: reporter signal increase, D54 LucT cells – cell-based, luminescence, cherry pick, counter-screen for N-linked glycosylation inhibitor project, dose response (AID 624404)

Row | SMILES | AC35 [nM]
1 | CC(C)n1c(/C=C/[C@H](O)C[C@H](O)CC(=O)O)c(-c2ccc(F)cc2)c2ccccc21 | 370
2 | O=C(NCCN1C(=O)S/C(=C\c2ccc(Cl)cc2Cl)C1=O)C1=COCCO1 | 3410
3 | CCOc1ncccc1C(=O)Nc1cc2c(cc1Br)OCCO2 | 169
4 | CC(C)(C)S(=O)(=O)N1C[C@H]2CC/C=C\C/C(c3ccccc3)=C\2[C@@H]1CCO | 536
5 | CCCCC[C@H](O)/C=C/[C@@H]1[C@@H](C/C=C\CCCC(=O)OC)[C@@H](O)C[C@H]1O | < 1.2
6 | CC1CN(C(=O)c2ccc(COc3ccc4ccccc4c3)o2)CC(C)O1 (centres undefined) | 306
7 | CCCNc1nc2ccccc2n2c(C)nnc12 | 19.1
8 | CCOc1ccc2[nH]c3c(N4CCc5ccccc5C4)ncnc3c2c1 | 4260
9 | CCOC(=O)c1c(C)[nH]c(C(=O)N/N=C/c2ccc(OC)c(OC)c2)c1C | 526
10 | COc1ccc(-n2c(=S)[nH]c3cc(C(=O)Nc4ccc(C)c(F)c4)ccc3c2=O)c(OC)c1 | 245
11 | COc1ccc2[nH]c(C(=O)N/N=C/c3ccccc3OC)cc2c1 | 1170
12 | COc1cc2[nH]c(C(=O)Nc3ccc(F)cc3)cc2c(OC)c1OC | 98.2
13 | Cn1c(=O)[nH]c(=O)c2c1nc(NN)n2CCOc1ccccc1 | 3090
14 | CCn1ncc(C2=NOC(C(=O)NCc3ccc(Cl)cc3)C2)c1C (centres undefined) | 14700
15 | CCN(c1ccccc1)S(=O)(=O)c1ccc(N)c(OC)c1 | 1820
16 | COc1ccc(NC(=O)C2Cc3c(-c4cccc(NC(C)=O)c4)ccnc3O2)cc1 (centres undefined) | 18.9
17 | CSc1nnc(-c2sccc2OCc2ccccc2)n1C | 929
18 | COc1ccc(/C(C)=N/NC(=O)c2ccccc2OCc2ccccc2)c(OC)c1 | 56
19 | Cc1ccc(C(=O)N/C(=C/c2ccco2)C(=O)NCCc2c[nH]c3ccccc23)cc1 | 1750
20 | Cc1nnc2c3ccccc3c(-c3cccs3)nn12 | 312
21 | Cc1ccnc(NC(=O)Nc2ccc3c(c2)N(C)C(=O)CS3)c1 | 8.68
22 | Cc1cccc([C@@H]2[C@@H]3C(=O)N(Cc4ccccc4)C(=O)[C@@H]3[C@]3(Cc4ccccc4)C(=O)N(c4cccc(F)c4)C(=O)N23)c1 | 4360
23 | COc1cc2c(cc1OC)C(c1ccccc1)N(C(=O)c1ccccc1F)CC2 (centres undefined) | 608
24 | Cc1[nH]c2ccccc2c1/C=N/NC(=O)c1cc(-c2ccncc2)nc2ccccc12 | 2060
25 | O=c1[nH]c(=O)n([C@H]2C[C@H](O)[C@@H](CO)O2)cc1I | 4150
26 | Nc1c(C(=O)c2ccccc2)sc2nsc(SCCN3CCOCC3)c12 | 57.8

Row | SMILES | AC35 [nM]
27 | Cc1cccc(N2C(=O)N3[C@H](c4ccc(F)cc4)[C@@H]4C(=O)N(C5CCCCC5)C(=O)[C@@H]4[C@]3(Cc3ccccc3)C2=O)c1 | 541
28 | CNC(=O)c1cccn(Cc2ccc(C(F)(F)F)cc2)c1=O | 1240
29 | CCOC(=O)c1c(C)nc2c(c1-c1cc(OC)c(OC)c(OC)c1)C(=O)c1ccccc1-2 | 514
30 | CCc1ccc(N2C(=O)Nc3ccccc3C2(O)C(=O)N2CCN(c3ccccn3)CC2)cc1 (centres undefined) | 493
31 | COc1cc(-c2coc3c(C(=O)NCc4ccc(OC)c(OC)c4)cccc23)ccc1O | 2800
32 | Cc1cc(NS(=O)(=O)c2ccc(NC(=O)COc3c(C)cc(Br)cc3C)cc2)no1 | 1660
33 | CCc1ccc(OCC(=O)Nc2ccc(-c3cc4ccccc4oc3=O)c(OC)c2)cc1 | 734
34 | COc1ccc(S(=O)(=O)N2CCCCC2)cc1NC(=O)c1[nH]c(C)c(C(C)=O)c1C | 621
35 | Cc1ccc2nc(Cl)c(/C=C/C(=O)c3ccco3)cc2c1 | 1530
36 | CC(C)(C)S(=O)(=O)N1C[C@@H]2CC/C=C\C/C(c3ccccc3)=C\2[C@H]1CCO | 645
37 | CC(C)[n+]1ccn(C2=C([O-])c3ccccc3C(=O)/C2=N\S(=O)(=O)c2ccccc2)c1 | 2370
38 | C[C@@]12C(=O)Nc3ccc(Br)cc3C(=O)N1[C@H]1c3ccccc3OC[C@@H]1[C@@H]2c1ccccc1 | 785
39 | CCCCCC(O)C=CC1C(O)CC(O)C1CC=CCCCC(=O)O (centres undefined) | 3.82
40 | Cc1ccc(C(=O)N/C(=C\c2cccs2)C(=O)NCCc2c[nH]c3ccccc23)cc1C | 116
41 | COc1ccc(C2NC(=S)NC3=C2CCCC3=C2SCCS2)cc1 (centres undefined) | 186
42 | COc1cc2c(cc1OC)C(c1cccs1)N(C(=O)c1cccc(S(=O)(=O)N(C)C)c1)CC2 (centres undefined) | 640
43 | O=C(C[C@@H]1C/C=C/CC[C@H](Cc2ccc(F)cc2)C(=O)OC[C@@H](Cc2ccccc2)NC1=O)N[C@H](CO)Cc1ccccc1 | 4640
44 | CCCNC(=O)c1cc(-c2ccco2)on1 | 903
45 | COc1ccc2c(c1)[C@H]1[C@H](CO2)[C@H](c2ccccc2)[C@]2(C)C(=O)Nc3cc(OC)c(OC)cc3C(=O)N12 | 20.2
46 | C[C@@]12C(=O)Nc3cc(F)c(F)cc3C(=O)N1[C@H]1c3cc(Cl)ccc3OC[C@@H]1[C@@H]2c1ccccc1 | 1600
47 | COc1ccc(CCn2c(O)c(C=NCc3ccc4c(c3)OCO4)c(=O)[nH]c2=O)cc1OC | 678
48 | CC(C)Oc1ccc(C(=O)Nc2ccc3c(c2)n(C)c(=O)n3C)cc1 | 5520
49 | O=C(NCCc1ccccc1)c1cc(-c2ccco2)on1 | 1010
50 | NC(=O)CC(NC(=O)Cc1ccc(Br)cc1)c1ccc(NC2CCC2)c([N+](=O)[O-])c1 (centres undefined) | 1710
51 | CC(=O)C1=C(O)C(=O)N(c2ccc(Br)cn2)C1c1ccc(Br)cc1 (centres undefined) | 55.2
52 | O=S(=O)([N-]c1nc2ccccc2nc1-n1cc[n+](Cc2ccccc2)c1)c1ccccc1 | 648

Row | SMILES | AC35 [nM]
53 | CCCCn1c(SCc2c(C)noc2C)nc2cc(S(N)(=O)=O)ccc21 | 680
54 | O=C1NC(=O)N(Cc2ccccc2)C(=O)/C1=C/C=C/c1ccco1 | 5280
55 | Cc1ccc2c(c1)C(=O)N1[C@H]3c4cc(Br)ccc4OC[C@@H]3[C@H](c3ccccc3)[C@]1(C)C(=O)N2 | 241
56 | Cc1nnc2c(NC3CCCCC3)nc3ccccc3n12 | 3510
57 | Cn1nc(-c2ccccc2)c(CSc2ccccc2Cl)c1Cl | 1120
58 | Cc1ccc(NC(=O)C(Cc2ccccc2)N2C(=O)C3C4CCC(C4)C3C2=O)cc1Cl (centres undefined) | 1680
59 | COc1cc(C(=O)Nc2cc3c(cc2N2CCCCC2)n(C)c(=O)n3C)cc(OC)c1OC | 96.4
60 | COc1ccc(C(=O)c2ccc(OC)c(N)c2)cc1N | 827
61 | CCOC(=O)C1CCN(c2c(N3CCN(Cc4ccccc4)CC3)c(=O)c2=O)CC1 | 1220
62 | COC(=O)/C=C1\C(=O)N(c2nc3ccccc3s2)C(=S)N1c1ccc(F)cc1 | 14.9
63 | Cc1ccnc(NC(=O)CN2C(=O)NC(C)(c3ccc4ccccc4c3)C2=O)c1 (centres undefined) | 362
64 | OCCCNc1c2ccccc2nc2ccccc12 | 4900
65 | CCc1nc2ccc(C(=O)NCCc3c[nH]c4ccccc34)cn2c1N(C=O)CCC(C)C | 645
66 | COc1ccccc1NC(=O)c1cnc(SCC(=O)NCC2CCCO2)n(C)c1=O (centres undefined) | 4930
67 | O=C(Nc1cccc2ncccc12)c1ccc([N+](=O)[O-])o1 | 4570
68 | CCOC(=O)c1[nH]c2c(c1-c1ccccc1)C(=O)CC(c1ccccc1)C2 (centres undefined) | 2690
69 | COc1ccc(Nc2cc(C)nc(-n3nc(C)cc3C)n2)cc1 | 150
70 | O=C(N/N=C/c1c(-c2ccccc2)[nH]c2ccccc12)c1cccnc1 | 1280
71 | CCC(C)[C@H](NC(=O)N1CC(=O)Nc2ccccc21)C(=O)Nc1ccccc1C (some centres undefined) | 2750
72 | CC(C)c1ccc(/C=N/NC(=O)c2ccccc2Cl)cc1 | 247
73 | COc1ccccc1-c1c(C#N)c(N)nc2c1CCc1ccccc1-2 | 1110
74 | COC(=O)c1c(C)[nH]c(C(=O)/C=C/c2cccc(Cl)c2)c1C | 839
75 | COc1ccc(-n2c(=S)[nH]c3cc(C(=O)Nc4ccc(F)cc4)ccc3c2=O)c(OC)c1 | 1470
76 | CC1c2cc3c(cc2CCN1C(=O)c1ccc(Br)cc1)OCCCO3 (centres undefined) | 172
77 | CC(C)/C=C1\CC/C(=C\c2cccnc2)C1=O | 9160
78 | Cn1c(=O)n(C)c2cc(C(=O)Nc3ccc4c(c3)OCO4)ccc21 | 1870

Row | SMILES | AC35 [nM]
79 | Nc1nc(Nc2ccccc2)sc1C(=O)c1ccccc1 | 272
80 | Cn1nc(C(=O)Nc2cccc(S(=O)(=O)N3CCCCC3)c2)c2ccccc2c1=O | 50.3
81 | Cc1ccc2[nH]c(=O)c3cc(C(=O)NC(C)C)sc3c2c1 | 2390
82 | Cc1nc(N=C(N)N)nc2c(C)cccc12 | 3820
83 | CCN(CC)S(=O)(=O)c1cccc(C(=O)OCC(=O)Nc2ccc3c(c2)c2ccccc2n3CC)c1 | 1390
84 | c1ccc(Cc2nnc(Sc3ccccc3)c3ccccc23)cc1 | 3830
85 | CC(C)Sc1ccccc1C(=O)Nc1ccc2c(c1)n(C)c(=O)n2C | 1820
86 | CC[C@H](C)C(=O)O[C@H]1CCC=C2C=C[C@H](C)[C@H](CC[C@@H]3C[C@@H](O)CC(=O)O3)[C@H]21 | 1260
87 | CCOc1nc(N=C(N)N)nc2c(C)cccc12 | 603
88 | NC(=O)CC(NC(=O)Cc1ccc(Br)cc1)c1ccc(NC2CC3CCC2C3)c([N+](=O)[O-])c1 (centres undefined) | 210
89 | Cc1cccc(Nc2nc(N)nc(-c3oc4ccccc4c3C)n2)c1 | 1570
90 | CCOC(=O)c1c(C)c(C(=O)Nc2ccc(N(C)C)cc2)c(C)n1CC | 3560
91 | Nc1c(N(Cc2ccccc2)C(=O)COc2ccc([N+](=O)[O-])cc2)c(=O)[nH]c(=O)n1Cc1ccccc1 | 303
92 | CN(CCCNC(=O)CCCOc1cc(=O)n(C)c2ccccc12)Cc1ccccc1 | 5230
93 | O=C1Cc2c([nH]c3ccc(Br)cc23)-c2ccccc2N1 | 2.52
94 | COc1cc2c(cc1OC)CN(c1ccc(C(F)(F)F)cn1)CC2 | 2500
95 | O=C(Nc1cc(=O)[nH]c(=O)[nH]1)c1cc(Cl)ccc1Cl | 3150
96 | Cc1cccc(C(=O)Oc2ccccc2/C=N/NC(=O)c2ccc(NC(=O)C(C)(C)C)cc2)c1 | 2690
97 | Cc1ccc2nc(/C(C#N)=C/c3cn[nH]c3-c3ccc(F)cc3)[nH]c2c1 | 2180
98 | CC12CC[C@H]3[C@@H](CCC4(O)C[C@H](O)CCC34/C=N/NC(=O)c3ccccc3O)C1(O)CCC2C1=CC(=O)OC1 (some centres undefined) | 6220
99 | Cc1nnc2c3ccccc3c(-c3ccccc3)nn12 | 221
100 | c1ccc(C2=Nn3c(nnc3-c3n[nH]c4c3CCC4)SC2)cc1 | 2250
101 | CCN(CC)S(=O)(=O)c1ccc(N2CCOCC2)c(NC(=O)c2[nH]c(C)c(C(C)=O)c2C)c1 | 330
102 | CCN(CCCNC(=O)COc1cc(=O)n(CC)c2ccccc12)Cc1ccccc1 | 517
103 | O=C(COc1ccc(/C=N/NC(=O)c2cc3ccccc3o2)cc1Br)Nc1ccccc1 | 27
104 | COc1ccc(C2=NOC(C(=O)NCc3ccco3)C2)cc1 (centres undefined) | 784
